# In publication PMC3750255, “Inhibition of Mycoplasma pneumoniae growth by FDA-approved anticancer and antiviral nucleoside and nucleobase analogs” (BMC Microbiology, 2013):
# Where two headings read alike, the source gives them in different places.
# Key:
# [1] = system: M. pneumoniae wild type (laboratory strain M129); assay: Mpn growth inhibition in 96-well plates (growth index A450/A560), wild type strain; type: cell-based, Mycoplasma pneumoniae; conditions: for MIC: Mycoplasmoides pneumoniae
# Experimental: (§1) A series dilution of each compound in Mycoplasma growth medium was added to Mpn cultures in 96-well plates. The plates were sealed and incubated at 37°C. Mpn growth was monitored by using growth index value e.g. the ratio of absorbance at 450 nm and 560 nm of the culture medium. Thirty nucleoside and nucleobase analogs and a nucleoside transporter inhibitor were included, and two Mpn strains, wild type and a thyA mutant (lacking TS activity), were used.
# (§2) Nucleoside and nucleobase analogs were dissolved in dimethyl sulfoxide (DMSO) as stock solutions and diluted with Mpn culture medium to the desired concentration immediately prior to use.
# (§3) Mpn laboratory strain M129 wild type and a thyA mutant strain [31] were used in this study. Mpn was cultured at 37°C in a CO2 incubator using 75 cm^2 tissue culture flasks containing 50 ml Hayflick’s medium, and harvested at day 4 when the medium color change was observed. The cells were harvested and the pellet was resuspended in 6 ml fresh medium and the cfu/ml was determined by serial dilution (10-fold) and plating on broth agar plate. Colonies was counted and cfu/ml was calculated.
# (§4) Inhibition studies were performed in 96-well plates containing 200 μl Mpn culture (approximately 10^6 cfu ml^-1) in Hayflick’s medium and 200 μl each compound in series dilutions (2-fold) with the growth medium, with three to four replicas. The plates were sealed with clear adhesive sheets and incubated at 37°C incubator. Absorbance ratio at 450 nm and 560 nm was used as Mpn growth index, which was measured daily, and by visual detection for at least 8 days, as previously described. […] The MICs (minimal inhibitory concentration required to inhibit Mpn growth to 90%) were determined as the lowest concentration at which the growth index was ≈ 10% of the control values (at the time when the control culture medium color turned yellow), essentially as described.
# [2] = system: M. pneumoniae thyA mutant (lacking TS activity); assay: microbe, parasite or virus in culture; type: cell-based, Mycoplasma pneumoniae; conditions: for MIC: Mycoplasmoides pneumoniae, read-out: thyA mutant MIC
# Experimental: as §1, §2, §3, §4
# Mpn HPRT = molecular target: T1, Mpn HPRT (Mycoplasmoides pneumoniae, UniProt P75119); assay: biochemical
# T1 sequence (P75119 1-175): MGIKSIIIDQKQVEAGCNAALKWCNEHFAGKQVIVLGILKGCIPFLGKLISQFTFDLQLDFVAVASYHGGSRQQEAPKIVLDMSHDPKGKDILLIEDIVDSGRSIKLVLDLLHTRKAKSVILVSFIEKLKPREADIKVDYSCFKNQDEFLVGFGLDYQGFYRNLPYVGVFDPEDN
# Experimental: (§5) The reaction was initiated by addition of the enzyme, and at 0, 5, 10, and 15 min intervals, 10 μl reaction mixture was withdrawn and spotted onto the DE81 filter paper and dried. The unreacted substrate was washed and the products were eluted and counted in a liquid scintillation counter. With [^3H]-Gua as substrate the reaction (in a total of 25 μl) was initiated by addition of the enzyme (10 μl), incubated at 37°C for 2 min, stopped by addition of 1 M HCl (10 μl), and placed immediately on ice. After neutralization, 15 μl of the mixture was spotted onto the DE81-filter paper. The filters were then washed, and the products were eluted and counted by liquid scintillation.
# human HPRT = molecular target: T2, human HPRT (Homo sapiens, UniProt P00492); assay: HPRT inhibition, DE-81 filter paper assay; type: biochemical
# T2 construct: made in house
# T2 sequence (P00492 1-218): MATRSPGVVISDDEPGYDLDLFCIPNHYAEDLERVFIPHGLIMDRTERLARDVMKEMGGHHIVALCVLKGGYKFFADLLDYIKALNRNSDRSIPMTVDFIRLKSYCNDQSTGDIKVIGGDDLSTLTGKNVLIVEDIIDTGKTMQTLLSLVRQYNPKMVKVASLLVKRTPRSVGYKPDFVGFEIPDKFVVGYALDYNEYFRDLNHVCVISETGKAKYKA
# Experimental: as §5
# Mpn wild type cells = assay: Uptake and metabolism of tritium labelled natural nucleoside and nucleobases in the presence of analogs; type: cell-based, Mycoplasma pneumoniae; conditions: 10 μM analog, 70 hours; for [3H]-Ade Total uptake / [3H]-Gua Total uptake / [3H]-Hx Total uptake / [3H]-Ura Total uptake / [3H]-dT Total uptake: 37°C, radioactivity in cells / total added; for [3H]-Ade Incorporation / [3H]-Gua Incorporation / [3H]-Hx Incorporation / [3H]-Ura Incorporation / [3H]-dT Incorporation: acid insoluble fraction / total in cells
# Experimental: The cells were harvested and analyzed essentially as described. Analogs used were dipyridamole, 6-thioguanine (6-TG), trifluorothymidine (TFT), gemcitabine (dFdC) and 5-fluorodeoxyuridine (5FdU). Total uptake is the percent of radioactivity recovered in the cells divided by total radioactivity added to the growth medium. Percent of acid insoluble (radioactivity found in DNA and RNA) was also calculated. These experiments were done more than three times and data are given as mean ± SD.
# [3] = substrate hypoxanthine, 10 μM [3H]-hypoxanthine
# [4] = IC50 Human HPRT, substrate hypoxanthine, 10 μM [3H]-hypoxanthine
# [5] = minimal concentration producing 90% inhibition, wild type Mpn, read-out: Wild type MIC
# [6] = strain not specified, 90% growth inhibition
Compound,MIC ([1]; read-out: Wild type MIC) [µg/mL],MIC [2] [µg/mL],also measured
Nc1ncn([C@@H]2O[C@H](CO)[C@@H](O)[C@H]2O)c(=O)n1 [5-azacytidine],> 500,> 500,
Nc1nc(=O)[nH]cc1F [5-fluorocytosine],31.2,31.2,
O=c1[nH]cc(F)c(=O)[nH]1 [5-fluorouracil],31.2,31.2,
O=c1[nH]c(=O)n([C@H]2C[C@H](O)[C@@H](CO)O2)cc1I [5-iododeoxyuridine],15.6,> 500,Inhibition of wild type Mpn growth (in words) ([1]; wild type Mpn): only inhibited the wild type Mpn growth
"Sc1ncnc2nc[nH]c12 [6-mercaptopurine (6-MP), 6-mercaptopurine]",> 500,> 500,"Inhibition of Mpn growth (in words) ([1]; strain not specified): did not inhibit Mpn growth; IC50 (Mpn HPRT; substrate guanine, 10 μM [3H]-guanine): 282 ± 21 µM; IC50 (Mpn HPRT; [3]): 89.7 ± 14.5 µM; IC50 (human HPRT; 10 μM [3H]-guanine, read-out: IC50 Human HPRT, substrate guanine): 25.1 ± 3 µM; IC50 (human HPRT; [4]): 22.5 ± 3.6 µM"
"Cn1c(=O)c2c(ncn2CC(O)CO)n(C)c1=O (centres unmarked) [7-(2,3-dihydroxypropyl)theophylline]",> 500,> 500,
Nc1nc2c(ncn2COCCO)c(=O)[nH]1 [Acyclovir],15.6,15.6,
CC(C)(C)C(=O)OCOP(=O)(COCCn1cnc2c(N)ncnc21)OCOC(=O)C(C)(C)C [Adefovir depivoxil],,,"Wild type MIC ([1]; minimal concentration producing 90% inhibition, wild type Mpn): > 500 µg/mL; thyA mutant MIC ([2]; minimal concentration producing 90% inhibition, thyA mutant Mpn): > 500 µg/mL"
Oc1ncnc2[nH]ncc12 [Allopurinol],,> 500,"MIC [1, 5]: > 500 µg/mL"
Nc1ncnc2c1ncn2[C@@H]1O[C@H](CO)[C@@H](O)[C@@H]1O [Arabinosyl adenine],,> 500,"MIC [1, 5]: > 500 µg/mL"
Cn1cnc([N+](=O)[O-])c1Sc1ncnc2nc[nH]c12 [Azathioprine],> 500,> 500,
Cn1c(=O)c2c(ncn2C)n(C)c1=O [Caffeine],,> 500,"MIC [1, 5]: > 500 µg/mL; IC50 (human HPRT; [4]): 2510 ± 156 µM"
Nc1ccn(C[C@@H](CO)OCP(=O)(O)O)c(=O)n1 [Cidofovir],31.2,31.2,
OCCN(CCO)c1nc(N2CCCCC2)c2nc(N(CCO)CCO)nc(N3CCCCC3)c2n1 [Dipyridamole],1.9,1.9,"MIC (Mpn growth) [1, 6]: approximately 2 μg ml^-1; [3H]-Ade Total uptake (Mpn wild type cells): 0.67±0.1%; [3H]-Gua Total uptake (Mpn wild type cells): 0.09±0.002%; [3H]-Hx Total uptake (Mpn wild type cells): 0.008± 0.001%; [3H]-Ura Total uptake (Mpn wild type cells): 0.20±0.003%; [3H]-dT Total uptake (Mpn wild type cells): 7.2±1.1%; [3H]-Ade Incorporation (Mpn wild type cells): 47±1%; [3H]-Gua Incorporation (Mpn wild type cells): 56±6%; [3H]-Hx Incorporation (Mpn wild type cells): 44±3%; [3H]-Ura Incorporation (Mpn wild type cells): 38±6%; [3H]-dT Incorporation (Mpn wild type cells): 97.0±1.3%"
Nc1nc(F)nc2c1ncn2[C@@H]1O[C@H](COP(=O)(O)O)[C@@H](O)[C@@H]1O [Fludarabine phosphate],> 500,> 500,
Nc1nc(O)c2ncn(COC(CO)CO)c2n1 [Gancyclovir],7.8,> 500,Inhibition of wild type Mpn growth (in words) ([1]; wild type Mpn): inhibited wild type Mpn
"Nc1ccn([C@@H]2O[C@H](CO)[C@@H](O)C2(F)F)c(=O)n1 [Gemcitabine (dFdC), Gemcitabine]",2.4,2.4,"MIC ([1]; read-out: MIC (Mpn growth), strain not specified, 90% growth inhibition): ~2.5 µg/mL; MIC (Mpn growth) [1, 6]: approximately 2 μg ml^-1; [3H]-Ade Total uptake (Mpn wild type cells): 0.41±0.08%; [3H]-Gua Total uptake (Mpn wild type cells): 0.10±0.02%; [3H]-Hx Total uptake (Mpn wild type cells): 0.009±0.0002%; [3H]-Ura Total uptake (Mpn wild type cells): 0.12±0.001%; [3H]-dT Total uptake (Mpn wild type cells): 5.2±0.4%; [3H]-Ade Incorporation (Mpn wild type cells): 39±8%; [3H]-Gua Incorporation (Mpn wild type cells): 90±6%; [3H]-Hx Incorporation (Mpn wild type cells): 67±7%; [3H]-Ura Incorporation (Mpn wild type cells): 26±6%; [3H]-dT Incorporation (Mpn wild type cells): 96.7±1.1%"
Nc1ccn([C@@H]2CS[C@H](CO)O2)c(=O)n1 [Lamivudine],> 500,> 500,
COc1c(C)c2c(c(O)c1C/C=C(\C)CCC(=O)OCCN1CCOCC1)C(=O)OC2 [Mycophenolate mofetil],250,250,
CC(=O)CCCCn1c(=O)c2c(ncn2C)n(C)c1=O [Pentoxifylline],62.5,> 500,Inhibition of wild type Mpn growth (in words) ([1]; wild type Mpn): inhibited wild type Mpn
CCc1nc(N)nc(N)c1-c1ccc(Cl)cc1 [Pyrimethamine],> 500,> 500,
NC(=O)c1ncn([C@@H]2O[C@H](CO)[C@@H](O)[C@H]2O)n1 [Ribavirin],62.5,> 500,Inhibition of wild type Mpn growth (in words) ([1]; wild type Mpn): inhibited wild type Mpn
Cc1cn([C@H]2C=C[C@@H](CO)O2)c(=O)[nH]c1=O [Stavudine],7.8,17.8,
Cn1c(=O)c2[nH]cnc2n(C)c1=O [Theophylline],> 500,> 500,IC50 (Mpn HPRT; [3]): > 4000 µM; IC50 (human HPRT): 1580 ± 134 µM
CC(C)[C@H](N)C(=O)OCCOCn1cnc2c(=O)[nH]c(N)nc21 [Valacyclovir],> 500,> 500,Inhibition of Mpn growth (in words) ([1]; strain not specified): did not inhibit Mpn growth
Nc1ccn([C@H]2CC[C@@H](CO)O2)c(=O)n1 [Zalcitabine],> 500,> 500,
Cc1cn([C@H]2C[C@H](N=[N+]=[N-])[C@@H](CO)O2)c(=O)[nH]c1=O [Zidovudine],7.8,7.8,
CN(C)[C@@H]1C(O)=C(C(N)=O)C(=O)[C@@]2(O)C(O)=C3C(=O)c4c(O)cccc4[C@@](C)(O)[C@H]3C[C@@H]12 [tetracycline],,,"Mpn growth in control cultures (in words) ([1]; 2 μg/ml tetracycline, up to 8 days): no growth; MIC ([1]; strain not specified, 90% growth inhibition, read-out: MIC (Mpn growth)): 0.1 µg/mL"
